For data set [1], the system named is pentobarbital-anesthetized rabbit myocardial infarction. In words: pentobarbital-anesthetized rabbit myocardial infarction model. The class given is in vivo. From the text: The cardioprotective activity of the agents of the invention is confirmed in vivo e.g. in a model of pentobarbital-anesthetized rabbit myocardial infarction where the infarct size is reduced upon administration of about 1 to about 100 μmol/kg [For the model, see for example Ytrehus K. et al., Am. J. Physiol 267 (Heart Circ. Physiol. 36): H2383-2390, 1994 and Haessler R. et al., Cardiov. Res. 28: 1574-1580, 1994; for the cardioprotective effect of PARP inhibitors as evidenced in this model, see for example Thiemermann C. et al., Proc. Natl. Acad. Sci. USA 94: 679-683, 1997].

Molecules are shown by their SMILES.

With `Cl.Cl.O=c1[nH]c2c(CCNCCN3CCOCC3)c3ccccc3n2c2ccccc12`, the melting point lay within 196 to 198 °C.
Still for that read-out and setting: the same measure for `CCc1c2ccccc2n2c1[nH]c(=O)c1ccccc12` [Example 1, 7-Ethyl-6H-indolo[1,2-a]quinazoline-5-one]: 245 to 260 °C.
`O=c1[nH]c2c(Cc3nnn[nH]3)c3ccccc3n2c2ccccc12` [Example 22, 7-(1 H-Tetrazole-5-ylmethyl)-6H-indolo[1,2-a]quinazoline-5-one]: the “reduction of infarct size” value in data set [1] (highest dose tested (70 μmol/kg i.v., 22.1 mg/kg of the base), single injection five minutes before reperfusion) was 60%. Further, the “effect on infarct size” value in data set [1] (single injection at 3-70 μmol/kg i.v. (0.95-22.1 mg/kg i.v. of the base) five minutes before reperfusion) was “dose-dependently reduces infarct size”.
`O=c1[nH]c2c(CCO)c3ccccc3n2c2ccccc12` [Example 61, 7-(2-Hydroxy-ethyl)-6H-indolo[1,2-a]quinazoline-5-one]: the melting point was in the range of 248 to 252 °C.
Same read-out and setting: the same measure for `NCCc1c2ccccc2n2c1[nH]c(=O)c1ccccc12` [Example 64, 7-(2-Amino-ethyl)-6H-indolo[1,2-a]quinazoline-5-one]: more than 300 °C.
The same measure, in the same setting: the same measure for `CCC(N)Cc1c2ccccc2n2c1[nH]c(=O)c1ccccc12` (stereo not shown) [Example 65, 7-(2-Amino-butyl)-6H-indolo[1,2-a]quinazoline-5-one]: 165 to 195 °C (dec.).

The term melting point denotes the temperature, or range, at which the solid turns liquid.

The record behind these values is US6964960B2, “Indoloquinazolinones” (Novartis AG, priority 2000, dated 2005).
